Values joined by “and” are separate entries in the source; they are usually repeats but may differ in a detail not shown here. Equal values may be shown once. Read-outs that look alike come from different tables or passages of the source.
Assay: Pharmacokinetics of WT-161 in CD-1 mice after intravenous administration (plasma, LC-MS/MS)
Assay type: in vivo
Protocol: WT-III-161 (Wt: 458.55 for free base) was dissolved in 25% DMSO, 25% Cremophor EL, and 50% saline to yield final concentration at 2 mg/mL for intravenous administration (pH=6-7). The solution was clear and light yellow, and the concentration of WT-III-161 in it was confirmed by HPLC method with an accuracy of 116.92% (Table I).
Study design, animal selection, handling and treatment were in accordance with the Shanghai Medicilon Inc. study protocol (Shanghai Medicilon Inc Study No. BRD0701). Male CD0-1 mice (body weight 23 g to 27 g) were used in this study. Before the pharmacokinetic studies, animals were randomly assigned to the treatment groups (3 animals per timepoint). Ten additional mice were used to collect plasma for calibration curves.
[…] All the samples and the dose formulation were stored at −20° C. until bioanalysis or transportation to sponsor.
The concentrations of WT-161 in plasma were determined using a high pressure liquid chromatography/mass spectrometry (LC-MS/MS) method.
The LC system comprised an Aligent liquid chromatograph equipped with an isocratic pump (1100 series), an autosampler (1100 series) and a degasser (1100 series). Mass spectrometric analysis was performed using an API3000 (triple quadrupole) instrument from AB Inc (Canada) with an ESI interface. The data acquisition and control system were created using Analyst 1.4 software from ABI Inc. Acetonitrile and methanol were HPLC grade. All other solvents and chemicals were analytical grade or better.
Pharmacokinetic software DAS 2.0 (Gaosi Data Analysis Inc., Wuhn, China) was used.
Chromatographic conditions: ColumnL Synergi Fusion-RP, 4 μm (150 mm×2.0 mm); Mobile phase: 0.1% formic acid:methanol:acetonitrile (5:90:5); Elution rate: 350 μL/min; Column temperature: 25° C.; Injection volume: 2 μL.
Scan type: positive MRM; Ion Source: Turbo spray; Ionization mode: ESI; Nebulize gas: 8 L/min; Curtain gas: 8 L/min; Collision gas: 4 L/min; Ionspray voltage: 5000 V; Temperature: 500° C.
Plasma samples (0.1 mL) were transferred to Eppendorff tubes, then 20 μL of methanol, 500 μL IS solutions (50 ng/mL) were added to it. After vortexing for 1 minute and centrifuging for 5 min at 15,000 rpm, 2 μL of supernatant was injected onto the LC-MS/MS.
The concentration in plasma below the limit of quantitation (LOQ=5 ng/mL) were designated as zero. The pharmacokinetic data analysis was performed using noncompartmental analysis modules in DAS 2.0.

[1] = male, mouse, CD-1 mice, IV 5 mg/kg, plasma

O=C(CCCCCCC(=O)N/N=C/c1ccc(N(c2ccccc2)c2ccccc2)cc1)NO [WT-161]
Concentration in plasma, individual mice 1-3 (0.033 hr post-dose, IV 5 mg/kg, 5 mg/kg): 13.60691 µg/mL and 27.4927 µg/mL and 14.89074 µg/mL | Concentration in plasma, individual mice 1-3 (0.083 hr post-dose, IV 5 mg/kg, 5 mg/kg): 6.08236 µg/mL and 8.59187 µg/mL | Concentration in plasma, individual mice 1-3 (0.25 hr post-dose, IV 5 mg/kg, 5 mg/kg): 1.76206 µg/mL and 1.33663 µg/mL | Concentration in plasma, individual mice 1-3 (0.5 hr post-dose, IV 5 mg/kg, 5 mg/kg): 0.78044 µg/mL and 1.15236 µg/mL | Concentration in plasma, individual mice 1-3 (1 hr post-dose, IV 5 mg/kg, 5 mg/kg): 0.12263 µg/mL and 0.05774 µg/mL and 0.26397 µg/mL | Concentration in plasma, individual mice 1-3 (2 hr post-dose, IV 5 mg/kg, 5 mg/kg): 0.08792 µg/mL and 0.114 µg/mL | Concentration in plasma, individual mice 1-3 (3 hr post-dose, IV 5 mg/kg, 5 mg/kg): 0.02512 µg/mL and 0.00938 µg/mL and 0.01437 µg/mL | Concentration in plasma, individual mice 1-3 (4 hr post-dose, IV 5 mg/kg, 5 mg/kg): 0.07408 µg/mL and 0.02079 µg/mL and 0.00737 µg/mL | Concentration in plasma, individual mice 1-3 (6 hr post-dose, IV 5 mg/kg, LOQ 5 ng/mL, 5 mg/kg): BLQ and 6.57 ng/mL | Concentration in plasma, individual mice 1-3 (8 hr post-dose, IV 5 mg/kg, LOQ 5 ng/mL): BLQ | Concentration in plasma, individual mice 1-3 (24 hr post-dose, IV 5 mg/kg, LOQ 5 ng/mL): BLQ | Systemic clearance as percent of mouse hepatic blood flow (5.40 L/hr/kg) (CD-1 mice, IV bolus 5 mg/kg): 30.37% | concentration at 0.033 hr (male, CD-1, mouse, plasma, iv, 5 mg/kg, 0.033 hr post-dose, IV 5 mg/kg): 18.7 µg/mL | concentration at 0.083 hr (male, CD-1, mouse, plasma, iv, 5 mg/kg, 0.083 hr post-dose, IV 5 mg/kg, read-out: Concentration in plasma, Mean): 8 µg/mL | concentration at 0.083 hr (male, CD-1, mouse, plasma, iv, 5 mg/kg, 0.083 hr post-dose, IV 5 mg/kg, read-out: Concentration in plasma, individual mice 1-3): 9.33 µg/mL | concentration at 0.25 hr (male, CD-1, mouse, plasma, iv, 5 mg/kg, 0.25 hr post-dose, IV 5 mg/kg, read-out: Concentration in plasma, Mean): 1.76 µg/mL | concentration at 0.25 hr (male, CD-1, mouse, plasma, iv, 5 mg/kg, 0.25 hr post-dose, IV 5 mg/kg, read-out: Concentration in plasma, individual mice 1-3): 2.19 µg/mL | concentration at 0.5 hr (male, CD-1, mouse, plasma, iv, 5 mg/kg, 0.5 hr post-dose, IV 5 mg/kg, read-out: Concentration in plasma, Mean): 0.956 µg/mL | concentration at 0.5 hr (male, CD-1, mouse, plasma, iv, 5 mg/kg, 0.5 hr post-dose, IV 5 mg/kg, read-out: Concentration in plasma, individual mice 1-3): 0.934 µg/mL | concentration at 1 hr (male, CD-1, mouse, plasma, iv, 5 mg/kg, 1 hr post-dose, IV 5 mg/kg): 0.148 µg/mL | concentration at 2 hr (male, CD-1, mouse, plasma, iv, 5 mg/kg, 2 hr post-dose, IV 5 mg/kg, read-out: Concentration in plasma, Mean): 0.0952 µg/mL | concentration at 2 hr (male, CD-1, mouse, plasma, iv, 5 mg/kg, 2 hr post-dose, IV 5 mg/kg, read-out: Concentration in plasma, individual mice 1-3): 0.0836 µg/mL | concentration at 3 hr (male, CD-1, mouse, plasma, iv, 5 mg/kg, 3 hr post-dose, IV 5 mg/kg): 0.0163 µg/mL | concentration at 4 hr (male, CD-1, mouse, plasma, iv, 5 mg/kg, 4 hr post-dose, IV 5 mg/kg): 0.0341 µg/mL | concentration at 6 hr (male, CD-1, mouse, plasma, iv, 5 mg/kg, 6 hr post-dose, IV 5 mg/kg, BLQ designated as zero, read-out: Concentration in plasma, Mean): 0.00415 µg/mL | concentration at 6 hr (male, CD-1, mouse, plasma, iv, 5 mg/kg, 6 hr post-dose, IV 5 mg/kg, LOQ 5 ng/mL, read-out: Concentration in plasma, individual mice 1-3): 0.00587 µg/mL | Cmax (male, CD-1, mouse, plasma, iv, 5 mg/kg, CD-1 mice, IV 5 mg/kg, read-out: Cmax): 18.7 µg/mL | Cmax (male, CD-1, mouse, plasma, iv, 5 mg/kg, IV, nominal dose 5 mg/kg, read-out: Cmax (at 2 minutes after dosing)): 18.7 µg/mL | Tmax (male, mouse, plasma, CD-1 mice, IV 5 mg/kg): 1.8 min | clearance (male, mouse, plasma, CD-1 mice, IV 5 mg/kg, read-out: CLZ (systemic clearance) (converted)): 1.64 L/h/kg | MRT inf (male, mouse, plasma, CD-1 mice, IV 5 mg/kg, read-out: MRT(0-∞)): 19.8 min | half-life (male, mouse, plasma, CD-1 mice, IV 5 mg/kg, read-out: T1/2z (half-life) (converted)): 84.6 min | Vd (male, mouse, plasma, CD-1 mice, IV 5 mg/kg, read-out: VZ (volume of distribution at terminal phase)): 3.33 L/kg | AUC(0-inf) [1]: 3.05 µg·h/mL | AUC(0-t) [1]: 3.02 µg·h/mL | Tissue distribution (mice, IV 5 mg/kg): distributes well in tissues | Volume of distribution as fold of total body water (0.73 L/kg) (mice, IV 5 mg/kg): 4.56 fold

— patent US9434686B2, “Deacetylase inhibitors and uses thereof” (President and Fellows of Harvard College, priority 2008, dated 2016)
